A short description of data set [1]: Stability in PBS and DMEM media (LCMS).
A short description of data set [2]: ROS selectivity test, LC/MS. The conditions noted are these: 200 μM BBCP, 2 mM OCl^−, PBS pH 7.4, LC/MS. Here is the method: (§1) Selectivity for the BBCP probe was measured by analytical high performance liquid chromatography (HPLC) using Agilent 1200 Series HPLC System equipped with a multi-wavelength detector and an Agilent Zorbax SB-C18 Column (3.5 μm particle size, 3.0×150 mm). Concentrations of 4-cyanopyridine was calculated using integrated peak intensities at 280 nm using a calibration curve. All reactions were tested with 200 μM BBCP and 2 mM ROS/RNS (10 equiv) in PBS (pH 7.4). At a given time point, the reaction was quenched with 10 μL 1 M ascorbic acid (10 mM) and analyzed by LCMS. The ROS and RNS were generated as follows:
OCl^−: Commercial bleach (8.25% NaOCl) was diluted to 500 mM. 4 μL of 500 mM NaOCl (for a final concentration of 2 mM) was added to 200 μM of BBCP.

Data set [3] can be described thus: ROS/RNS/reactive sulfur selectivity test, LC/MS. The conditions noted are these: 200 μM probe, 2 mM reactive species, PBS pH 7.4, LC/MS (FIG. 1B). Here is the method: Selectivity for the BBCP probe was measured by analytical high performance liquid chromatography (HPLC) using Agilent 1200 Series HPLC System equipped with a multi-wavelength detector and an Agilent Zorbax SB-C18 Column (3.5 μm particle size, 3.0×150 mm). Concentrations of 4-cyanopyridine was calculated using integrated peak intensities at 280 nm using a calibration curve. All reactions were tested with 200 μM BBCP and 2 mM ROS/RNS (10 equiv) in PBS (pH 7.4). At a given time point, the reaction was quenched with 10 μL 1 M ascorbic acid (10 mM) and analyzed by LCMS.

Data set [4] in a line: ROS/RNS selectivity test, LC/MS. The conditions noted are these: 200 μM BBCP, 2 mM ONOO^−, PBS pH 7.4, LC/MS. Here is the method: as §1
ONOO^−: To a solution of aqueous NaOH (0.5 M, 2.5 mL) and iPrOH (2.5 mL) was added H2O2 (30% in H2O, 0.12 mL, 1.2 mmol, 1.2 equiv), followed by isoamyl nitrite (0.135 mL, 1.0 mmol, […]). The reaction was stirred at room temperature for 20 mins and washed with CH2Cl2 (10 mL×2). […] The solution was then filtered and stored in −20° C. until use. The concentration of the stock solution was calculated to be 14.3 mM using absorbance at 302 nm (e=1670 M^−1).

Data set [5] is described as follows: In vivo reaction-based detection of H2O2 with hyperpolarized 15N-BBCP. The conditions noted are these: rat. On the procedure: Finally, the ability of ^15N-BBCP to image H2O2 in vivo using clinical 3 T MRI was assessed.
Finally, the feasibility of ^15N-BBCP to detect H2O2 in vivo was investigated in a rat model at the clinical 3 T MRI. […] Despite the small chemical shift difference, the accumulation of ^15N-HBCP production was clearly observed in the later time points.

Data set [6] in a line: UV/Vis kinetics measurement. The conditions noted are these: 25° C., PBS pH 7.4, 50 μM BBCP, 5 mM H2O2 (100 equiv). Here is the method: The pseudo-first order rate constant was calculated by monitoring the BBCP consumption with UV/Vis spectroscopy over time in the presence of excess H2O2. A solution of BBCP (50 μM) oxidation was initiated by the addition of freshly prepared H2O2 (5 mM, 100 equiv) in PBS (pH 7.4) at 25° C. Reactions were monitored as Abs310 change and scanned every 30 s for 20 minutes. The apparent k1 value was determined by the initial rate of reaction (0-50 s) as (3.4±0.15)×10^−3 min^−1. The experiment was repeated in triplicate to give a k2 value of 12.6±0.52 M^−1 min^−1 (0.21±0.0087 M^−1 s^−1).

A short description of data set [7]: ROS selectivity test, LC/MS conversion to 4-cyanopyridine. The conditions noted are these: 200 μM BBCP, 2 mM H2O2 (10 equiv), PBS pH 7.4, 5-30 min, room temperature. On the procedure: as §1
H2O2: A 30% H2O2 in H2O solution was diluted to a 500 mM stock solution. 4 μL of 500 mM H2O2 (2 mM) was added to a 200 μM of BBCP in PBS.

A further data set concerns HeLa cells. Kind of data set: Cytotoxicity analysis using WST-8 assay (CCK-8). Type of data set: cell-based. The conditions noted are these: concentrations up to 10 mM, 6 h of treatment. Here is the method:
WST cytotoxicity assay was performed using Cell Counting Kit-8 (CCK-8) according to the procedure as follows. HeLa cells were seeded in a 96-well plate at a concentration of 5000 cells/well in DMEM medium (high glucose) supplemented with 10% FBS and 1% sodium pyruvate. The cell cultures were incubated for 24 h in a humidified atmosphere of 5% CO2 at 37° C. After the incubation period, 10 μL of 5, 10, 50, 100 mM stock solutions of BBCP dissolved in PBS buffer (pH 7.4) were added to each well so the final concentration is 0.5, 1, 5, 10 mM, respectively. PBS and sodium dodecyl sulfate (SDS) (1 mM) were used as negative and positive controls, respectively. The treated 96-well plates were incubated for 6 and 24 h in a humidified atmosphere of 5% CO2 at 37° C. After appropriate incubation time, the CCK-8 solution (10 μL) was added to each well and further incubated for 2 h for color development. The absorbance at 450 nm from each well was measured by using a microplate reader (Synergy™ H1, BioTek). The background absorbance of BBCP corrected.
Background: Tetrazolium dyes change colour on reduction, which living cells bring about.

Setting [8] is: injection of exogenous H2O2, 3 T 15N-MRS (Example 3).

What is called cell viability is the share of living cells, or the viability signal relative to a control. As to “1-(4-boronobenzyl)-4-(cyano)pyridin-1-ium [^15N-BBCP]”, the “LCMS absorbance peak area of the probe in PBS” value came to 566.6 in data set [1] (0 hours), 565.6 in data set [1] (2 hours) and 564.9 in data set [1] (26 hours). In addition, in data set [1] (200 μM probe, pH 7.4, room temp, LCMS), the “time stable in PBS and DMEM media” value was “over 26 h”. Moreover, the “stability in physiological buffer solution (in words)” value in data set [1] (PBS, pH 7.4, 200 μM, 0, 2 and 24 h (FIG. 4)) is “only showing hydrolysis of boronic ester to boronic acid”. Further, the reactivity with hypochlorite result in data set [2] is given as “moderate reactivity”. The reactivity toward hydrogensulfite result in data set [3] is “showed reactivity”. In addition, in data set [4], the reactivity with peroxynitrite entry was “moderate reactivity”. The “15N-CP (fragmentation product) signal in vivo” value in data set [5] (setting [8]) is recorded as “^15N-CP was not observed”; in data set [5] (intravenous bolus 40-mM after intraperitoneal H2O2, 3 T), “^15N-CP was not observed”. Besides, the “15N-HBCP (oxidation product) signal in vivo” value was “^15N-HBCP peak was detectable” in data set [5] (setting [8]); “both ^15N-BBCP and ^15N-HBCP peaks appeared” in data set [5] (intravenous bolus 40-mM after intraperitoneal H2O2, slab with liver and kidneys, 3 T). Besides, the “apparent k1 (pseudo-first order rate constant), initial rate 0-50 s” value in data set [6] is on record as “(3.4±0.15)×10^−3 min^−1”. Also, in data set [7], the “conversion to 4-cyanopyridine on reaction with H2O2” value is “significant conversion to 4-cyanopyridine”. In addition, the cell viability in the data set with HeLa cells was over 90%.

Values taken from patent US12377173B2, “Compositions comprising hyperpolarized probes for H2O2 sensing and methods of using same” (Duke University, priority 2021, dated 2025).
